What follows are compounds tested against endogenous cellular BACE2 in the Ins1e rat cell line (Rattus norvegicus (Rat), UniProt Q6IE75) (assay: Assay for BACE inhibition by measuring cellular TMEM27 cleavage (ELISA of shed hTMEM27 from INS-TMEM27 cells)). Conditions: assay a): cellular TMEM27 cleavage, INS-TMEM27 cells (superscript a).
Format: cell-based
Summary of the method: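 Shed human TMEM27 is quantified by ELISA in medium of TetOn INS1e cells after 46 h at 37 °C. Compound is dosed across a concentration range, followed 2 h later by doxycycline induction at 500 ng/ml. Each concentration's readout is curve-fitted to give the EC50.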

Sequence of endogenous cellular BACE2 in the Ins1e rat cell line (Q6IE75 63-514): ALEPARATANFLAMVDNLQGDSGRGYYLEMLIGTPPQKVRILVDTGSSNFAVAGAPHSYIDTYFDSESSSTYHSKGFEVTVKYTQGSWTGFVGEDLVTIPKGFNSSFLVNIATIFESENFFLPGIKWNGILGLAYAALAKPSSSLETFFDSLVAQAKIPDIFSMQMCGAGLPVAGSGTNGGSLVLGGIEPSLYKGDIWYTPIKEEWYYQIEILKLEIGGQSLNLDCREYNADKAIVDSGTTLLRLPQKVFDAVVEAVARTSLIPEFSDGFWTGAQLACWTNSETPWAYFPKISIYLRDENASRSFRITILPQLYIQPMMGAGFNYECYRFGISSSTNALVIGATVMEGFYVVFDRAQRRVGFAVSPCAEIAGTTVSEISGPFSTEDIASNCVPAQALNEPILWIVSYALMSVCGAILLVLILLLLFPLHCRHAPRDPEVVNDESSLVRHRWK

IC50 [nM] | SMILES
24 | Cc1nc(C(C)Nc2ccc(F)c([C@@]3(C)N=C(N)N(C)C(=O)C3(C)C)c2)c(C(F)(F)F)o1 (stereo partly drawn) [Example 159, (S)-2-Amino-6-{2-fluoro-5-[1-(2-methyl-5-trifluoromethyl-oxazol-4-yl)-ethylamino]-phenyl}-3,5,5,6-tetramethyl-5,6-dihydro-3H-pyrimidin-4-one]
6 | CN1C(=O)C(C)(C)[C@@](C)(c2cc(NCc3nn(C(F)F)cc3Cl)ccc2F)N=C1N [Example 160, (S)-2-Amino-6-{5-[(4-chloro-1-difluoromethyl-1H-pyrazol-3-ylmethyl)-amino]-2-fluoro-phenyl}-3,5,5,6-tetramethyl-5,6-dihydro-3H-pyrimidin-4-one]

These compounds were tested against BACE2 enzyme ectodomain (Homo sapiens (Human), UniProt Q9Y5Z0) (assay: Fluorescent-peptide cleavage assay for BACE2 inhibition). Conditions: assay b): fluorescent-peptide cleavage, pH 4.5 (superscript b).
Sequence of BACE2 enzyme ectodomain (Q9Y5Z0 63-473): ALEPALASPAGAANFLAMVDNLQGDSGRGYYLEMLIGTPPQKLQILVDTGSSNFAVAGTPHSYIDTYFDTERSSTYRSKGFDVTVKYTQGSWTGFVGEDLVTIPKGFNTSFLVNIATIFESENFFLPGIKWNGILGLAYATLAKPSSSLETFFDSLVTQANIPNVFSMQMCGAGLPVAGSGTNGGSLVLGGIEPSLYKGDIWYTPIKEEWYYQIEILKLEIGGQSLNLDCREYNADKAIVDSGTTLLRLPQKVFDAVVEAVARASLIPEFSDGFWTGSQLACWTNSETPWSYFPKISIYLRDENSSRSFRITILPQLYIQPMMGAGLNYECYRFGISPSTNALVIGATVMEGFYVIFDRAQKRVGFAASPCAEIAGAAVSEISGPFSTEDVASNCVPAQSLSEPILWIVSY
Format: biochemical
Experimental: b) Fluorescent-Peptide Cleavage Assay for BACE2 Inhibition
BACE2 enzyme ectodomain (derived from plasmid “pET17b-T7-hu proBACE2”) was prepared as described in Ostermann et al., “Crystal Structure of Human BACE2 in Complex with a Hydroxyethylamine Transition-state Inhibitor”, Journal of Molecular Biology 2006, 355, 249-261. The pro-enzyme was stored at 4° C. at a concentration of 70 μg/ml.
A fluorescent peptide with the amino acid sequence WS EVNLD AEFRC-MR121 was synthesised and a stock solution of 1.5 mM in DMSO prepared and stored at −20° C. MR121 is a fluorophore with an excitation wavelength of 630 nm and emission wavelength of 695 nm. The MR121 fluorescence is quenched by the N-terminal tryptophan until the peptide is cleaved by BACE2.
Assays were all made in a Corning 384-well black polystyrene non-binding surface microtitre plate with clear flat bottom and using a Plate:Vision (Perkin Elmer) fluorescence reader. To perform the assay an 80 nM solution of BACE2 was prepared in assay buffer (assay buffer is 100 mM Na-acetate; 20 mM EDTA; 0.05% BSA; pH 4.5) and incubated at room temperature for 1 hour to activate the enzyme. 39 μl of the activated BACE2 was placed in each assay well, followed by 1 μl compound to be tested at an appropriate concentration in 100% DMSO. The plate was then mixed and incubated for 10 minutes at room temperature. To start the assay, 10 μl of a 1.5 μM solution fluorescent peptide in assay buffer was added and the fluorescence intensity in the assay mixture measured at 695 nm with an excitation wavelength of 630 nm for 30 minutes.
The assay readout is the rate of change of fluorescence intensity giving a relative measure of BACE2 activity. Small values correspond to high inhibition and larger values to low inhibition. To determine IC50 values (i.e. the concentration inhibiting the enzyme activity by 50%) of the compound for BACE2, typically, 15 assays were made with a range of concentrations chosen empirically to give low, high and intermediate inhibition of the protease. IC50 values were determined using these assay values generated for a range of inhibitor concentrations and the curve fitting software XLfit (IDBS) using the Sigmoidal Dose-Response Model.

IC50 [nM] | SMILES
21 | COc1ccc(Cl)cc1Nc1ccc(F)c([C@@]2(C)N=C(N)N(C)C(=O)C2(C)C)c1 [Example 150, (S)-2-Amino-6-(5-(5-chloro-2-methoxyphenylamino)-2-fluorophenyl)-3,5,5,6-tetramethyl-5,6-dihydropyrimidin-4(3H)-one]
100 | CC(C)C(=O)Nc1ccc(F)c([C@@]2(C)N=C(N)N(C)C(=O)C2(C)C)c1 [Example 151, N-[3-((S)-2-Amino-1,4,5,5-tetramethyl-6-oxo-1,4,5,6-tetrahydro-pyrimidin-4-yl)-4-fluoro-phenyl]-isobutyramide]
130 | CN1C(=O)C(C)(C)[C@@](C)(c2cc(Nc3ccc(C#N)cc3)ccc2F)N=C1N [Example 153, (S)-4-(3-(2-Amino-1,4,5,5-tetramethyl-6-oxo-1,4,5,6-tetrahydropyrimidin-4-yl)-4-fluorophenylamino)benzonitrile]
35 | COc1cc(Cl)c(C)cc1Nc1ccc(F)c([C@@]2(C)N=C(N)N(C)C(=O)C2(C)C)c1 [Example 154, (S)-2-Amino-6-(5-(4-chloro-2-methoxy-5-methylphenylamino)-2-fluorophenyl)-3,5,5,6-tetramethyl-5,6-dihydropyrimidin-4(3H)-one]
13 | CN1C(=O)C(C)(C)[C@@](C)(c2cc(Nc3ccc(C#N)cc3OC(F)(F)F)ccc2F)N=C1N [Example 161, (S)-4-(3-(2-Amino-1,4,5,5-tetramethyl-6-oxo-1,4,5,6-tetrahydropyrimidin-4-yl)-4-fluorophenylamino)-3-(trifluoromethoxy)benzonitrile]
120 | CN1C(=O)C(C)(C)[C@@](C)(c2cc(NC3CCCC3C#N)ccc2F)N=C1N (stereo partly drawn) [Example 162, 2-[3-((S)-2-Amino-1,4,5,5-tetramethyl-6-oxo-1,4,5,6-tetrahydro-pyrimidin-4-yl)-4-fluoro-phenylamino]-cyclopentanecarbonitrile]
62 | CN1C(=O)C(C)(C)[C@@](C)(c2cc(Nc3ccc(C#N)cc3C(F)(F)F)ccc2F)N=C1N [Example 163, (S)-4-(3-(2-Amino-1,4,5,5-tetramethyl-6-oxo-1,4,5,6-tetrahydropyrimidin-4-yl)-4-fluorophenylamino)-3-(trifluoromethyl)benzonitrile]
1090 | CN1C(=O)C(C)(C)[C@@](C)(c2cc(Nc3ccc(S(C)(=O)=O)cc3)ccc2F)N=C1N [Example 164, (S)-2-Amino-6-(2-fluoro-5-(4-(methylsulfonyl)phenylamino)phenyl)-3,5,5,6-tetramethyl-5,6-dihydropyrimidin-4(3H)-one]
39 | CN1C(=O)C(C)(C)[C@@](C)(c2cc(Nc3cc(C#N)ccc3F)ccc2F)N=C1N [Example 165, (S)-3-(3-(2-Amino-1,4,5,5-tetramethyl-6-oxo-1,4,5,6-tetrahydropyrimidin-4-yl)-4-fluorophenylamino)-4-fluorobenzonitrile]
80 | CN1C(=O)C(C)(C)[C@@](C)(c2cc(Nc3cc(F)c(C#N)cc3F)ccc2F)N=C1N [Example 166, (S)-4-(3-(2-Amino-1,4,5,5-tetramethyl-6-oxo-1,4,5,6-tetrahydropyrimidin-4-yl)-4-fluorophenylamino)-2,5-difluorobenzonitrile]
73 | CN1C(=O)C(C)(C)[C@@](C)(c2cc(Nc3cccc(C#N)c3)ccc2F)N=C1N [Example 167, 3-[3-((S)-2-Amino-1,4,5,5-tetramethyl-6-oxo-1,4,5,6-tetrahydro-pyrimidin-4-yl)-4-fluoro-phenylamino]-benzonitrile]
14 | CN1C(=O)C(C)(C)[C@@](C)(c2cc(Nc3ccc(C#N)cc3Cl)ccc2F)N=C1N [Example 168, 4-[3-((S)-2-Amino-1,4,5,5-tetramethyl-6-oxo-1,4,5,6-tetrahydro-pyrimidin-4-yl)-4-fluoro-phenylamino]-3-chloro-benzonitrile]
180 | Cc1ccc(Nc2ccc(F)c([C@@]3(C)N=C(N)N(C)C(=O)C3(C)C)c2)cc1C#N [Example 169, 5-[3-((S)-2-Amino-1,4,5,5-tetramethyl-6-oxo-1,4,5,6-tetrahydro-pyrimidin-4-yl)-4-fluoro-phenylamino]-2-methyl-benzonitrile]
140 | COc1ccc(Nc2ccc(F)c([C@@]3(C)N=C(N)N(C)C(=O)C3(C)C)c2)cn1 [Example 170, (S)-2-Amino-6-(2-fluoro-5-(6-methoxypyridin-3-ylamino)phenyl)-3,5,5,6-tetramethyl-5,6-dihydropyrimidin-4(3H)-one]
1800 | Cc1ccc(Nc2ccc(F)c([C@@]3(C)N=C(N)N(C)C(=O)C3(C)C)c2)cn1 [Example 171, (S)-2-Amino-6-(2-fluoro-5-(6-methylpyridin-3-ylamino)phenyl)-3,5,5,6-tetramethyl-5,6-dihydropyrimidin-4(3H)-one]
110 | CN1C(=O)C(C)(C)[C@@](C)(c2cc(Nc3ccc(OCC(F)(F)F)nc3)ccc2F)N=C1N [Example 172, (S)-2-Amino-6-(2-fluoro-5-(6-(2,2,2-trifluoroethoxy)pyridin-3-ylamino)phenyl)-3,5,5,6-tetramethyl-5,6-dihydropyrimidin-4(3H)-one]
400 | CN1C(=O)C(C)(C)[C@@](C)(c2cc(Nc3ccc(C(F)(F)F)nc3)ccc2F)N=C1N [Example 173, (S)-2-Amino-6-(2-fluoro-5-(6-(trifluoromethyl)pyridin-3-ylamino)phenyl)-3,5,5,6-tetramethyl-5,6-dihydropyrimidin-4(3H)-one]
150 | CN1C(=O)C(C)(C)[C@@](C)(c2cc(Nc3cncc(F)c3)ccc2F)N=C1N [Example 174, (S)-2-Amino-6-(2-fluoro-5-(5-fluoropyridin-3-ylamino)phenyl)-3,5,5,6-tetramethyl-5,6-dihydropyrimidin-4(3H)-one]
250 | CN1C(=O)C(C)(C)[C@@](C)(c2cc(Nc3cncc(C(F)(F)F)c3)ccc2F)N=C1N [Example 175, (S)-2-Amino-6-(2-fluoro-5-(5-(trifluoromethyl)pyridin-3-ylamino)phenyl)-3,5,5,6-tetramethyl-5,6-dihydropyrimidin-4(3H)-one]
130 | CN1C(=O)C(C)(C)[C@@](C)(c2cc(Nc3ccc(Cl)nc3)ccc2F)N=C1N [Example 176, (S)-2-Amino-6-(5-(6-chloropyridin-3-ylamino)-2-fluorophenyl)-3,5,5,6-tetramethyl-5,6-dihydropyrimidin-4(3H)-one]

From patent US8815881B2 (Hoffmann-La Roche Inc., priority 2010, dated 2014)
